Legend:
[1] = test system: R1 rhabdomyosarcoma tumor fragment implanted in liver; experiment: PDT with single implanted LED light source proximal to tumor-feeding vessel in rat liver tumor model; format: in vivo, WAG/Rij rats
Method: A study was carried out to explore whether placement of a single light source in proximity to an identified tumor-feeding vessel could result in effective treatment of larger volumes of the organ in which there was neoplasia than might be achieved using direct PDT on tumor tissue itself.
Methods. The liver of each of 20 WAG/Rij rats was implanted with a R1 rhabdomyosarcoma tumor fragment. […] A 10×1.5 mm LED light source was implanted in the liver proximal to an upstream feeding vessel. LEDs were placed at a distance ≧5 mm from the tumor to ensure that the tumor itself was outside the direct illumination effect of the PDT. After a 10-minute drug-light interval, a light dose totaling 200 J/cm was administered. Animals were sacrificed at various time points, up to 10 days post treatment, and the extent and the mechanism of cell death was evaluated histologically using TUNEL [TdT-mediated dUTP-X nick end labeling] and EM [Electron Microscopy].

[2] = test system: targeted tumors, including liver metastases arising from various primaries; conditions: clinical tests, PDT; Cancer 2003; 98:1767-71; cited from earlier work

For `C=Cc1c(C)c2cc3nc(c(CC(=O)N[C@@H](CC(=O)O)C(=O)O)c4[nH]c(cc5nc(cc1[nH]2)C(C)=C5CC)c(C)c4C(=O)O)[C@@H](CCC(=O)O)[C@@H]3C` [Talaporfin Sodium], the “cell death in tumors implanted downstream from the targeted vessel (TUNEL, EM)” value ([1]; 5 mg/kg i.v. tail vein, 10-minute drug-light interval, 200 J/cm, LED ≧5 mm from tumor) was “cell death was consistently induced by a predominantly apoptotic mechanism”, the “cell death in tumors similarly close to light source but vascularized by vessels other than the one targeted” value ([1]; 5 mg/kg i.v., 200 J/cm) was “no cell death was observed” and the “time cell death first observed after PDT (TUNEL)” value ([1]; 5 mg/kg i.v., 200 J/cm, tumors downstream from targeted vessel) was 2 days. For the same molecule, the “closure of larger blood vessels / extended PDT effect” value ([1]; dosed at 2 mg/kg or less) was “not sufficient to close larger blood vessels”, the “extent of PDT treatment effect” value ([1]; dosed at 2 mg/kg or less) was “restricted to the immediate vicinity of the illumination” and the “objective response rates in targeted tumors” value [2] was 33-50%.

Reference: patent publication US20090192209A1, “Extended treatment of tumors through vessel occlusion with light activated drugs” (Light Sciences Oncology, Inc., priority 2004, published 2009)
